Experimental data from patent publication US20230263758A1, “COMPOSITIONS OF EDTA HAVING ACTIVITY AGAINST PLANKTONIC AND BIOFILM CELLS OF CLINICALLY RELEVANT PATHOGENS” (SterileCare Inc., priority 2022, published 2023).
Counter-ions that a name gives are not always drawn.

Experiments:
S. epidermidis SK9 [1] = assay: Checkerboard, FMCI; type: cell-based, Staphylococcus epidermidis; conditions: EDTA + chlorhexidine HCl
Method: (§1) An assay was made using a minimum inhibitory concentration (MIC) and minimum bactericidal concentration (MBC) and minimum fungicidal concentration (MFC) determination. The MIC was determined by the micro broth dilution method in 96-well plates. Serial two-fold dilutions of tetrasodium EDTA (from 2% to 0.015%), ethanol (from 50% to 0.1%) and chlorhexidine HCl (from 100 μg/mL to 0.025 μg/mL) were prepared in MH broth with a final volume of 90 μL per well. A 10 μL containing 1×10^5 bacterial cells or 2×10^3 fungal cells were added to each well. The inoculated plates were covered with a lid, sealed with Parafilm, and incubated for 24 h at 37° C. with slight rocking on a tilting platform shaker. After incubation, the optical density at 600 nm (OD 600) of the cultures in each well was measured using an xMark™ Microplate Absorbance Spectrophotometer (Bio-Rad). […] MBCs and MFCs were determined by transferring 100 μL from each well with no apparent growth onto appropriate agar plates, followed by incubation for 24 h at 37° C.
(§2) A fourth composition and solution included tetrasodium EDTA with ethanol or chlorhexidine HCl. […] The concentrations of antimicrobials used were based on previously determined MIC values. […] Microtiter plates were incubated at 37° C. for 24 h, and the results were analyzed. […]

MRSA ON184 = assay: Checkerboard titration, FICI; type: cell-based, Staphylococcus aureus
Method: (§3) A fourth composition and solution included tetrasodium EDTA with ethanol or chlorhexidine HCl. This fourth composition and solution were created using checkerboard titration methods using micro broth dilution in 96-well microtiter plates. The concentrations of antimicrobials used were based on previously determined MIC values. Briefly, 200 μL of two-fold dilutions of tetrasodium EDTA and ethanol or chlorhexidine HCl were prepared in MH or MH II broth with standardized cell suspension. […] Microtiter plates were incubated at 37° C. for 24 h, and the results were analyzed. Each test was performed in duplicate and included a growth control without adding any antimicrobials.

[2] = system: Staphylococcus epidermidis ON170; assay: Checkerboard, FMCI; type: cell-based; conditions: S. epidermidis ON170
Method: as §1, §3

Candida albicans SK4b [3] = assay: Checkerboard, FMCI; type: cell-based; conditions: C. albicans SK4b
Method: as §1, §3

[4] = system: Pseudomonas aeruginosa SK1; assay: Checkerboard, FMCI; type: cell-based; conditions: P. aeruginosa SK1
Method: as §1, §3

Serratia marcescens SK2 [5] = assay: Checkerboard, FMCI; type: cell-based; conditions: S. marcescens SK2
Method: as §1, §3

[6] = system: Stenotrophomonas maltophilia ON17; assay: Checkerboard, FMCI; type: cell-based; conditions: S. maltophilia ON17; EDTA + chlorhexidine HCl
Method: as §1, §3

[7] = system: Staphylococcus aureus ON89; assay: Checkerboard, FMCI; type: cell-based; conditions: S. aureus ON89
Method: as §1, §3

Escherichia coli ON29 = assay: Checkerboard, FMCI; type: cell-based; conditions: E. coli ON29
Method: as §1, §3

Proteus mirabilis ON153 [8] = assay: Checkerboard, FMCI; type: cell-based; conditions: P. mirabilis ON153
Method: as §1, §3

E. coli SK2 = assay: Checkerboard, FMCI; type: cell-based, Escherichia coli; conditions: EDTA + chlorhexidine HCl
Method: as §1, §2

C. albicans ON47 [9] = assay: Checkerboard, FMCI; type: cell-based, Candida albicans; conditions: EDTA + chlorhexidine HCl
Method: as §1, §2

[10] = system: Pseudomonas aeruginosa SK1; assay: Checkerboard FBEC index, 48-h biofilm; type: cell-based; conditions: P. aeruginosa SK1 biofilm; EDTA + chlorhexidine HCl
Method: (§4) In step (4), microtiter plates are incubated at 37° C. for 24 h. then (6), after incubation, the bacterial and fungal cells were dislodged from the pegs into the recovery medium described above.
(§5) Three 10-μL aliquots, for a total of 30 μL from each well of recovery medium, were spotted on MH agar plates and incubated for 24 h at 37° C. […] The FBEC determination is a modification of the FICI.

C. albicans ON47 [11] = assay: Checkerboard titration, FICI; type: cell-based, Candida albicans
Method: as §3

S. epidermidis SK9 [12] = assay: Checkerboard titration, FICI; type: cell-based, Staphylococcus epidermidis
Method: as §3

[13] = system: Staphylococcus aureus ON89; assay: Checkerboard FBEC index, 48-h biofilm; type: cell-based; conditions: S. aureus ON89 biofilm
Method: as §4, §5

[14] = system: 48-h-old biofilms of bacterial and fungal strains; assay: MBEC assay, summary, 24 h exposure of 48-h-old biofilms; type: cell-based
Method: A biofilm cultivation cell composition was provided. This fifth composition was created using an MBEC Assay® biofilm inoculator, consisting of a polystyrene lid with 96 downward-protruding pegs and a corresponding base used to grow biofilms. A standardized inoculum was diluted in an appropriate biofilm growth medium to achieve a viable cell count of 1.5×10^6 CFU/mL of bacterial cells or 5×10^5 CFU/mL of fungal cells. Then, 150 μL of this inoculum was transferred into each appropriate well, and the peg lids were inserted into the microtiter plates. The plates were sealed with Parafilm and were incubated at optimum temperature for 48 h with slight rocking for bacteria and shaking at 200 rpm for fungal strains. After incubation, the peg lid was removed from the base and rinsed twice with sterile phosphate-buffered saline (PBS) for 2 min to remove loosely attached non-sessile cells. Before the antimicrobial challenge, the pegs in column 1 (n=8) were considered the biofilm growth control; these pegs were removed from the lids, placed into 200 μL of recovery medium, and analyzed for starting biofilm cell numbers as described below. […] After the antimicrobial challenge, the pegs were rinsed twice with sterile PBS for 2 min and placed into a new 96-well plate containing 200 μL of recovery medium. The recovery plates were sealed with Parafilm, and biofilm cells were dislodged from the pegs by sonication for 30 min with a Branson 3510 bath sonicator. The biofilm cells in the recovery medium were serially diluted, and a drop dilution assay was performed to enumerate the viable cells. MBEC values were determined as the minimum concentration of antimicrobials that yielded a viable cell count at or lower than the 125 CFU/mL detection limit.

Candida albicans SK4b [15] = assay: Checkerboard titration, FICI; type: cell-based; conditions: C. albicans SK4b
Method: as §3

[16] = system: Pseudomonas aeruginosa SK1; assay: Checkerboard titration, FICI; type: cell-based; conditions: P. aeruginosa SK1
Method: as §3

Serratia marcescens SK2 [17] = assay: Checkerboard titration, FICI; type: cell-based; conditions: S. marcescens SK2
Method: as §3

[18] = system: Stenotrophomonas maltophilia ON17; assay: Checkerboard titration, FICI; type: cell-based; conditions: S. maltophilia ON17
Method: as §3

Proteus mirabilis ON153 [19] = assay: Checkerboard titration, FICI; type: cell-based; conditions: P. mirabilis ON153
Method: as §3

[20] = EDTA + chlorhexidine HCl checkerboard

SMILES: [H]/N=C(\N/C(=N/[H])NCCCCCCNC(=N)NC(=N)Nc1ccc(Cl)cc1)Nc1ccc(Cl)cc1 [Chlorhexidine HCl, chlorhexidine HCl, reference compound]
- Microbicidal concentration in combination (S. epidermidis SK9 [1]): 0.4 µg/mL
- Inhibitory concentration in combination (MRSA ON184; [20]): 0.2 µg/mL
- Microbicidal concentration in combination ([2]; EDTA + chlorhexidine HCl): 0.4 µg/mL
- Microbicidal concentration in combination (Candida albicans SK4b [3]; EDTA + chlorhexidine HCl): 0.8 µg/mL
- Microbicidal concentration in combination ([4]; EDTA + chlorhexidine HCl): 1.6 µg/mL
- Microbicidal concentration in combination (Serratia marcescens SK2 [5]; EDTA + chlorhexidine HCl): 1.6 µg/mL
- Microbicidal concentration in combination [6]: 0.4 µg/mL
- Microbicidal concentration in combination ([7]; EDTA + chlorhexidine HCl): 0.2 µg/mL
- Microbicidal concentration in combination (Escherichia coli ON29; EDTA + chlorhexidine HCl): 0.2 µg/mL
- Microbicidal concentration in combination (Proteus mirabilis ON153 [8]; EDTA + chlorhexidine HCl): 1.6 µg/mL
- Microbicidal concentration in combination (E. coli SK2): 0.2 µg/mL
- Microbicidal concentration in combination (C. albicans ON47 [9]): 1.6 µg/mL
- Biofilm eradication concentration in combination (FBEC) [10]: 3.125 µg/mL
- Inhibitory concentration in combination (C. albicans ON47 [11]; [20]): 0.8 µg/mL
- Inhibitory concentration in combination (S. epidermidis SK9 [12]; [20]): 0.025 µg/mL
- Biofilm eradication concentration in combination (FBEC) ([13]; EDTA + chlorhexidine HCl): 3.125 µg/mL
- Concentration alone able to eradicate all established biofilms following 24 h of treatment [14]: 100 µg/mL
- Inhibitory concentration in combination (Candida albicans SK4b [15]; [20]): 0.8 µg/mL
- Inhibitory concentration in combination [16, 20]: 0.8 µg/mL
- Inhibitory concentration in combination (Serratia marcescens SK2 [17]; [20]): 1.5 µg/mL
- Inhibitory concentration in combination [18, 20]: 0.2 µg/mL
- Inhibitory concentration in combination (Proteus mirabilis ON153 [19]; [20]): 0.8 µg/mL

SMILES: O=C([O-])CN(CCN(CC(=O)[O-])CC(=O)[O-])CC(=O)[O-].[Na+].[Na+].[Na+].[Na+] [EDTA, tetrasodium EDTA]
- Microbicidal concentration in combination (S. epidermidis SK9 [1]): 0.008 % w/v
- Inhibitory concentration in combination (MRSA ON184; [20]): 0.008 % w/v
- Inhibitory concentration in combination (MRSA ON184; EDTA + ethanol checkerboard): 0.015 % w/v
- Microbicidal concentration in combination ([2]; EDTA + chlorhexidine HCl): 0.25 % w/v
- Microbicidal concentration in combination ([2]; EDTA + ethanol): 0.031 % w/v
- Microbicidal concentration in combination (Candida albicans SK4b [3]; EDTA + ethanol): 0.25 % w/v
- Microbicidal concentration in combination ([4]; EDTA + chlorhexidine HCl): 0.031 % w/v
- Microbicidal concentration in combination ([4]; EDTA + ethanol): 0.031 % w/v
- Microbicidal concentration in combination (Serratia marcescens SK2 [5]; EDTA + ethanol): 0.25 % w/v
- Microbicidal concentration in combination [6]: 0.031 % w/v
- Microbicidal concentration in combination ([7]; EDTA + chlorhexidine HCl): 0.008 % w/v
- Microbicidal concentration in combination ([7]; EDTA + ethanol): 0.25 % w/v
- Microbicidal concentration in combination (Escherichia coli ON29; EDTA + chlorhexidine HCl): 0.008 % w/v
- Microbicidal concentration in combination (Escherichia coli ON29; EDTA + ethanol): 0.25 % w/v
- Microbicidal concentration in combination (Proteus mirabilis ON153 [8]; EDTA + ethanol): 0.063 % w/v
- Microbicidal concentration in combination (E. coli SK2): 0.015 % w/v
- Microbicidal concentration in combination (C. albicans ON47 [9]): 0.031 % w/v
- Biofilm eradication concentration in combination (FBEC) [10]: 0.25 % w/v
- Inhibitory concentration in combination (C. albicans ON47 [11]; [20]): 0.125 % w/v
- Inhibitory concentration in combination (C. albicans ON47 [11]; EDTA + ethanol checkerboard): 0.25 % w/v
- Inhibitory concentration in combination (S. epidermidis SK9 [12]; [20]): 0.015 % w/v
- Inhibitory concentration in combination (S. epidermidis SK9 [12]; EDTA + ethanol checkerboard): 0.015 % w/v
- Biofilm eradication concentration in combination (FBEC) ([13]; EDTA + ethanol): 0.063 % w/v
- Concentration alone able to eradicate all established biofilms following 24 h of treatment [14]: 4%
- Inhibitory concentration in combination (Candida albicans SK4b [15]; [20]): 0.063 % w/v
- Inhibitory concentration in combination (Candida albicans SK4b [15]; EDTA + ethanol checkerboard): 0.25 % w/v
- Inhibitory concentration in combination [16, 20]: 0.5 % w/v
- Inhibitory concentration in combination ([16]; EDTA + ethanol checkerboard): 0.031 % w/v
- Inhibitory concentration in combination (Serratia marcescens SK2 [17]; [20]): 0.063 % w/v
- Inhibitory concentration in combination (Serratia marcescens SK2 [17]; EDTA + ethanol checkerboard): 0.5 % w/v
- Inhibitory concentration in combination [18, 20]: 0.015 % w/v
- Inhibitory concentration in combination ([18]; EDTA + ethanol checkerboard): 0.031 % w/v
- Inhibitory concentration in combination (Proteus mirabilis ON153 [19]; [20]): 0.063 % w/v
- Inhibitory concentration in combination (Proteus mirabilis ON153 [19]; EDTA + ethanol checkerboard): 0.5 % w/v
